Values of other authors as cited in patent US5180725A, “Quinoxalinyl/quinoxaliy; alkyl-N-terminal amino hydroxy” (G. D. Searle & Co., priority 1991, dated 1993).
Square brackets hold non-standard residues; d marks the D form. Peptide text beside a SMILES is read from it. * marks the point of attachment. Sta = CC(C)C[C@H](N)[C@@H](O)CC(=O)O; Isovaleryl = CC(C)CC(=O)*

Test system: hog renin
Settings: after the injection of hog renin into nephrectomized rats

For `CC(C)CC(=O)N[C@H](C(=O)N[C@H](C(=O)N[C@@H](CC(C)C)[C@@H](O)CC(=O)N[C@@H](C)C(=O)N[C@@H](CC(C)C)[C@@H](O)CC(=O)O)C(C)C)C(C)C` [pepstatin] (Isovaleryl-VV[Sta]A[Sta]-OH), the “blood pressure in vivo” value is listed as “found to reduce blood pressure in vivo”.
